Laboratory results taken from the supplement of paper PMC11451515.

System: SEM cells
Experiment: cell viability relative to DMSO control; higher = less cytotoxic
Settings: 48 h
How it was run: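 Cells were incubated for 48 h at 37°C before CellTiter-Glo One luminescence was read. The cells were NOMO1 or SEM (500 cells/well) or P12-Ichikawa (1000 cells/well) leukemia cells, adapted for at least four passages in each medium and seeded in 1536-well plates (5 μl). Dosing used library compounds in DMSO applied by pin over 11 threefold points, 47 μM to 0.79 nM. Viability is the per-plate percentage of DMSO wells, with cell-free wells as background.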

[1] = HPLM + 10% dialyzed FBS, 0.000781 µM
[2] = HPLM + 10% dialyzed FBS, 0.00234 µM
[3] = HPLM + 10% dialyzed FBS, 0.00702 µM
[4] = HPLM + 10% dialyzed FBS, 0.0211 µM
[5] = HPLM + 10% dialyzed FBS, 0.0632 µM
[6] = HPLM + 10% dialyzed FBS, 0.19 µM
[7] = HPLM + 10% dialyzed FBS, 0.569 µM
[8] = HPLM + 10% dialyzed FBS, 1.71 µM
[9] = HPLM + 10% dialyzed FBS, 5.12 µM
[10] = HPLM + 10% dialyzed FBS, 15.4 µM
[11] = HPLM + 10% dialyzed FBS, 46.1 µM
[12] = RPMI 5 mM glucose + 10% dialyzed FBS, 0.000781 µM
[13] = RPMI 5 mM glucose + 10% dialyzed FBS, 0.00234 µM
[14] = RPMI 5 mM glucose + 10% dialyzed FBS, 0.00702 µM
[15] = RPMI 5 mM glucose + 10% dialyzed FBS, 0.0211 µM
[16] = RPMI 5 mM glucose + 10% dialyzed FBS, 0.0632 µM
[17] = RPMI 5 mM glucose + 10% dialyzed FBS, 0.19 µM
[18] = RPMI 5 mM glucose + 10% dialyzed FBS, 0.569 µM
[19] = RPMI 5 mM glucose + 10% dialyzed FBS, 1.71 µM
[20] = RPMI 5 mM glucose + 10% dialyzed FBS, 5.12 µM
[21] = RPMI 5 mM glucose + 10% dialyzed FBS, 15.4 µM
[22] = RPMI 5 mM glucose + 10% dialyzed FBS, 46.1 µM
[23] = RPMI 5 mM glucose + 10% FBS, 0.000781 µM
[24] = RPMI 5 mM glucose + 10% FBS, 0.00234 µM
[25] = RPMI 5 mM glucose + 10% FBS, 0.00702 µM
[26] = RPMI 5 mM glucose + 10% FBS, 0.0211 µM
[27] = RPMI 5 mM glucose + 10% FBS, 0.0632 µM
[28] = RPMI 5 mM glucose + 10% FBS, 0.19 µM
[29] = RPMI 5 mM glucose + 10% FBS, 0.569 µM
[30] = RPMI 5 mM glucose + 10% FBS, 1.71 µM
[31] = RPMI 5 mM glucose + 10% FBS, 5.12 µM
[32] = RPMI 5 mM glucose + 10% FBS, 15.4 µM
[33] = RPMI 5 mM glucose + 10% FBS, 46.1 µM

Compound | cell viability [1] | cell viability [2] | cell viability [3] | cell viability [4] | cell viability [5] | cell viability [6] | cell viability [7] | cell viability [8] | cell viability [9] | cell viability [10] | cell viability [11] | cell viability [12] | cell viability [13] | cell viability [14] | cell viability [15] | cell viability [16] | cell viability [17] | cell viability [18] | cell viability [19] | cell viability [20] | cell viability [21] | cell viability [22] | cell viability [23] | cell viability [24] | cell viability [25] | cell viability [26] | cell viability [27] | cell viability [28] | cell viability [29] | cell viability [30] | cell viability [31] | cell viability [32] | cell viability [33]
Cc1ccc(NC(=O)Nc2cc(C(F)(F)F)ccc2F)cc1Nc1ccc2c(c1)NC(=O)/C2=C\c1ccc[nH]1 | 108% | 131% | 121% | 115% | 118% | 127% | 131% | 120% | 111% | 87.6% | 16.2% | 120% | 116% | 122% | 111% | 138% | 139% | 124% | 124% | 102% | 76.2% | 4.96% |  |  |  |  |  |  |  |  |  |  | 
CC(=O)OCC(=O)[C@@]12OC(C)(C)O[C@@H]1C[C@H]3[C@@H]4C[C@H](F)C/5=C/C(=O)/C=C\[C@]5(C)[C@@]4(F)[C@@H](O)C[C@]23C | 67.2% | 84.1% | 74.8% | 70.2% | 79.9% | 78.5% | 21.4% | 20.6% | 74.8% | 89.7% | 67.8% | 92.5% | 102% | 87.9% | 85.2% | 90% | 68.9% | 15.7% | 10.2% | 106% | 95.4% | 75.4% | 103% | 104% | 85.4% | 94.7% | 106% | 99.4% | 24.7% | 21.1% | 78.5% | 78.2% | 76.3%
O=C(C1CC1)N1CC[C@@H](Cn2c(-c3ccc(-c4ccc5occc5c4)cc3)nc3cnccc32)C1 | 94.6% | 91.1% | 106% | 108% | 98.8% | 107% | 115% | 108% | 104% | 121% | 102% | 113% | 102% | 101% | 111% | 112% | 119% | 129% | 121% | 108% | 114% | 108% | 73.9% | 89.5% | 99.9% | 97.9% | 108% | 101% | 99.9% | 110% | 101% | 103% | 85.9%
FC1=CC=C(CN2\C=C/C=C(/C(=O)N[C@@H](COC3=CC4=C(NC(=O)N4)C=C3)C5=CC=CC=C5)C2=O)C=C1F | 79.5% | 85.6% | 69.3% | 94.2% | 93.8% | 98.8% | 93.3% | 77.5% | 61% | 54.6% | 41.8% | 79.8% | 91.2% | 78.5% | 93.4% | 84.5% | 93.1% | 81% | 76.9% | 57.4% | 49.8% | 44.3% | 93.6% | 108% | 85.9% | 119% | 109% | 108% | 93.8% | 90% | 57.1% | 59.4% | 38.5%
C[N]1N=CC2=C1C=C(C(=C2)OC3=CC=C(NC(=O)\C4=C\C=C(\C)N(C4=O)C5=CC=C(F)C=C5)C=C3F)C6=C[NH]N=C6 | 98.7% | 93.2% | 94.4% | 94.5% | 62.3% | 54% | 48.3% | 43% | 11.1% | 6.77% | 7.19% | 98.5% | 105% | 97.8% | 89.4% | 54.5% | 52.1% | 50.8% | 43.7% | 11.4% | 7.29% | 7.53% | 91.5% | 100% | 96.6% | 84.3% | 54.7% | 56.1% | 59.1% | 38.9% | 9.63% | 8.07% | 8.6%
CN1/C=C(\N=C(NC2=CC=C(C=C2)C(=O)N3CCOCC3)/C1=O)/C4=C(C)C(=CC=C4)NC(=O)C5=CC=C(C=C5)C(C)(C)C | 111% | 97.2% | 105% | 48.6% | 106% | 116% | 97.5% | 110% | 106% | 89.5% | 92.2% | 106% | 108% | 105% | 50.7% | 120% | 107% | 100% | 111% | 92.2% | 98.5% | 68.6% | 110% | 102% | 106% | 46.8% | 101% | 86.6% | 110% | 92.8% | 104% | 83.3% | 66%
CCCCOc1ccc(CC(=O)NO)cc1 | 107% | 115% | 105% | 125% | 101% | 102% | 109% | 91.3% | 101% | 76.4% | 51.8% | 107% | 122% | 108% | 116% | 98.7% | 115% | 109% | 113% | 107% | 102% | 39.9% | 116% | 99.5% | 109% | 116% | 97% | 113% | 114% | 104% | 109% | 108% | 46.5%
